Measured values taken from US8802895B2, “Amide derivatives of benzene-sulfonanilide, pharmaceutical composition thereof and method for cancer treatment using the same” (Cleveland State University, priority 2010, dated 2014).

Tests used:
Assay type in all cases: cell-based
HL-60(TB) = experiment: NCIDTP 60 cancer cell lines screening, Leukemia panel
NCI-H23 = experiment: NCIDTP 60 cancer cell lines screening, Non-Small Cell Lung Cancer panel
HCC-2998 = experiment: NCIDTP 60 cancer cell lines screening, Colon Cancer panel
HT29 = experiment: as above
SF-539 = experiment: NCIDTP 60 cancer cell lines screening, CNS Cancer panel
SNB-75 = experiment: as above
U251 = experiment: as above
M14 = experiment: NCIDTP 60 cancer cell lines screening, Melanoma panel
SK-MEL-2 = experiment: as above

**Q.** For `Cc1ccc(C)c(COc2cc(NC(=O)c3ccc4c(c3)OCO4)ccc2N(C)S(C)(=O)=O)c1` [Compound #10, Benzo[1,3]dioxole-5-carboxylic acid [3-(2,5-dimethyl-benzyloxy)-4-(methanesulfonyl-methyl-amino)-phenyl]-amide], which TGI (HL-60(TB); HL-60(TB)) is on record?
**A.** 9.67E−8 Molar

**Q.** What about the “Percent Growth” value (HL-60(TB); HL-60(TB), Log10 Concentration −4.0 Molar) of the same compound?
**A.** −20%

**Q.** And the “Percent Growth” value (HL-60(TB); HL-60(TB), Log10 Concentration −5.0 Molar)?
**A.** −20%

**Q.** And the “Percent Growth” value (HL-60(TB); HL-60(TB), Log10 Concentration −6.0 Molar)?
**A.** −12%

**Q.** What about the “Percent Growth” value (HL-60(TB); HL-60(TB), Log10 Concentration −7.0 Molar) of the same compound?
**A.** −1%

**Q.** And the “Percent Growth” value (HL-60(TB); HL-60(TB), Log10 Concentration −8.0 Molar)?
**A.** 89%

**Q.** What about the CC50 (HL-60(TB); Homo sapiens, HL-60, read-out: LC50) of the same compound?
**A.** > 100000 nM

**Q.** What about the GI50 (HL-60(TB); Homo sapiens, HL-60(TB)) of the same compound?
**A.** 26.9 nM

**Q.** And the GI50 (NCI-H23; Homo sapiens, NCI-H23)?
**A.** 162 nM

**Q.** What about the CC50 (NCI-H23; Homo sapiens, NCI-H23, read-out: LC50) of the same compound?
**A.** > 100000 nM

**Q.** And the TGI (NCI-H23; NCI-H23)?
**A.** >1.00E−4 Molar

**Q.** And the “Percent Growth” value (NCI-H23; NCI-H23, Log10 Concentration −4.0 Molar)?
**A.** 2%

**Q.** And the “Percent Growth” value (NCI-H23; NCI-H23, Log10 Concentration −5.0 Molar)?
**A.** 3%

**Q.** And the “Percent Growth” value (NCI-H23; NCI-H23, Log10 Concentration −6.0 Molar)?
**A.** 5%

**Q.** What about the “Percent Growth” value (NCI-H23; NCI-H23, Log10 Concentration −7.0 Molar) of the same compound?
**A.** 62%

**Q.** What about the “Percent Growth” value (NCI-H23; NCI-H23, Log10 Concentration −8.0 Molar) of the same compound?
**A.** 97%

**Q.** And the TGI (HCC-2998; HCC-2998)?
**A.** 3.92E−7 Molar

**Q.** And the “Percent Growth” value (HCC-2998; HCC-2998, Log10 Concentration −4.0 Molar)?
**A.** −64%

**Q.** And the “Percent Growth” value (HCC-2998; HCC-2998, Log10 Concentration −5.0 Molar)?
**A.** −61%

**Q.** What about the “Percent Growth” value (HCC-2998; HCC-2998, Log10 Concentration −6.0 Molar) of the same compound?
**A.** −40%

**Q.** What about the “Percent Growth” value (HCC-2998; HCC-2998, Log10 Concentration −7.0 Molar) of the same compound?
**A.** 58%

**Q.** And the “Percent Growth” value (HCC-2998; HCC-2998, Log10 Concentration −8.0 Molar)?
**A.** 99%

**Q.** And the CC50 (HCC-2998; Homo sapiens, HCC 2998, read-out: LC50)?
**A.** 2970 nM

**Q.** And the GI50 (HCC-2998; Homo sapiens, HCC-2998)?
**A.** 120 nM

**Q.** What about the TGI (HT29; HT29) of the same compound?
**A.** 4.19E−7 Molar

**Q.** And the “Percent Growth” value (HT29; HT29, Log10 Concentration −4.0 Molar)?
**A.** −48%

**Q.** And the “Percent Growth” value (HT29; HT29, Log10 Concentration −5.0 Molar)?
**A.** −48%

**Q.** And the “Percent Growth” value (HT29; HT29, Log10 Concentration −6.0 Molar)?
**A.** −26%

**Q.** And the “Percent Growth” value (HT29; HT29, Log10 Concentration −7.0 Molar)?
**A.** 44%

**Q.** And the “Percent Growth” value (HT29; HT29, Log10 Concentration −8.0 Molar)?
**A.** 101%

**Q.** And the CC50 (HT29; Homo sapiens, HT-29, read-out: LC50)?
**A.** > 100000 nM

**Q.** What about the GI50 (HT29; Homo sapiens, HT-29, HT29) of the same compound?
**A.** 77.2 nM

**Q.** What about the “inhibition of cancer cell growth (NCI screening results, in words)” value (HT29; many types of cancer cell including HT29 colon cancer cells) of the same compound?
**A.** very potent to inhibit the growth

**Q.** What about the GI50 (SF-539; Homo sapiens, SF-539) of the same compound?
**A.** 125 nM

**Q.** What about the CC50 (SF-539; Homo sapiens, SF-539, read-out: LC50) of the same compound?
**A.** > 100000 nM

**Q.** And the “Percent Growth” value (SF-539; SF-539, Log10 Concentration −5.0 Molar)?
**A.** −10%

**Q.** And the “Percent Growth” value (SF-539; SF-539, Log10 Concentration −6.0 Molar)?
**A.** −10%

**Q.** And the “Percent Growth” value (SF-539; SF-539, Log10 Concentration −7.0 Molar)?
**A.** 56%

**Q.** What about the “Percent Growth” value (SF-539; SF-539, Log10 Concentration −8.0 Molar) of the same compound?
**A.** 91%

**Q.** And the GI50 (SNB-75; Homo sapiens, SNB-75)?
**A.** 266 nM

**Q.** And the CC50 (SNB-75; Homo sapiens, SNB-75, read-out: LC50)?
**A.** > 100000 nM

**Q.** What about the “Percent Growth” value (SNB-75; SNB-75, Log10 Concentration −4.0 Molar) of the same compound?
**A.** 3%

**Q.** What about the “Percent Growth” value (SNB-75; SNB-75, Log10 Concentration −5.0 Molar) of the same compound?
**A.** −6%

**Q.** What about the “Percent Growth” value (SNB-75; SNB-75, Log10 Concentration −6.0 Molar) of the same compound?
**A.** −5%

**Q.** What about the “Percent Growth” value (SNB-75; SNB-75, Log10 Concentration −7.0 Molar) of the same compound?
**A.** 91%

**Q.** What about the “Percent Growth” value (SNB-75; SNB-75, Log10 Concentration −8.0 Molar) of the same compound?
**A.** 86%

**Q.** And the CC50 (U251; Homo sapiens, U-251, read-out: LC50)?
**A.** > 100000 nM

**Q.** And the GI50 (U251; Homo sapiens, U-251, U251)?
**A.** 266 nM

**Q.** And the TGI (U251; U251)?
**A.** 2.19E−5 Molar

**Q.** And the “Percent Growth” value (U251; U251, Log10 Concentration −4.0 Molar)?
**A.** −16%

**Q.** And the “Percent Growth” value (U251; U251, Log10 Concentration −5.0 Molar)?
**A.** 8%

**Q.** What about the “Percent Growth” value (U251; U251, Log10 Concentration −6.0 Molar) of the same compound?
**A.** 15%

**Q.** What about the “Percent Growth” value (U251; U251, Log10 Concentration −7.0 Molar) of the same compound?
**A.** 76%

**Q.** And the “Percent Growth” value (U251; U251, Log10 Concentration −8.0 Molar)?
**A.** 97%

**Q.** And the GI50 (M14; Homo sapiens, M14)?
**A.** 75.7 nM

**Q.** What about the CC50 (M14; Homo sapiens, M14, read-out: LC50) of the same compound?
**A.** > 100000 nM

**Q.** What about the TGI (M14; M14) of the same compound?
**A.** 6.69E−7 Molar

**Q.** And the “Percent Growth” value (M14; M14, Log10 Concentration −4.0 Molar)?
**A.** −29%

**Q.** And the “Percent Growth” value (M14; M14, Log10 Concentration −5.0 Molar)?
**A.** −45%

**Q.** And the “Percent Growth” value (M14; M14, Log10 Concentration −6.0 Molar)?
**A.** −9%

**Q.** And the “Percent Growth” value (M14; M14, Log10 Concentration −7.0 Molar)?
**A.** 45%

**Q.** What about the “Percent Growth” value (M14; M14, Log10 Concentration −8.0 Molar) of the same compound?
**A.** 90%

**Q.** And the GI50 (SK-MEL-2; Homo sapiens, SK-MEL-2)?
**A.** 89.7 nM

**Q.** And the CC50 (SK-MEL-2; Homo sapiens, SK-MEL-2, read-out: LC50)?
**A.** > 100000 nM

**Q.** And the TGI (SK-MEL-2; SK-MEL-2)?
**A.** 6.16E−7 Molar

**Q.** What about the “Percent Growth” value (SK-MEL-2; SK-MEL-2, Log10 Concentration −4.0 Molar) of the same compound?
**A.** −18%

**Q.** What about the “Percent Growth” value (SK-MEL-2; SK-MEL-2, Log10 Concentration −5.0 Molar) of the same compound?
**A.** −12%
